target: T1, mu opioid receptor (Canis lupus familiaris, UniProt A0A0F6TMT6); assay: mu opioid receptor binding assay (displacement of 3H-DAMGO) in dog brain membranes; settings: 3H ligand DAMGO, room temperature 90 minutes, read-out: Ki values for the μ receptor
T1 construct: from tissue; host or cells: beagle brain without cerebellum, membrane homogenate
Description: The assays were conducted by the following procedure.
Laboratory bred beagles were used as a source of dog brain tissue. Animals were euthanised, their brains removed and the cerebellum discarded. The remaining brain tissue was sectioned into small pieces approximately 3 g in weight and homogenised in 50 mM Tris pH 7.4 buffer at 4° C. using a Kinematica Polytron™ tissue homogeniser. The resulting homogenate was centrifuged at 48,400×g for 10 minutes and the supernatant discarded. The pellet was resuspended in Tris buffer and incubated at 37° C. for 10 minutes. Centrifugation, resuspension and incubation steps were repeated twice more, and the final pellet was resuspended in Tris buffer and stored at −80° C. Membrane material prepared in this manner could be stored for up to four weeks prior to use.
For mu assays, increasing concentrations of experimental compound, (5×10^−12 to 10^−5 M), Tris buffer and ^3H ligand, ([D-Ala^2,N-Me-Phe^4,Gly-ol^5]-Enkephalin, DAMGO), were combined in polystyrene tubes. The reaction was initiated by the addition of tissue, and the mixture was incubated at room temperature for 90 minutes. The reaction was terminated by rapid filtration using a Brandel Cell Harvester™ through Betaplate™ GF/A glass fibre filters pre-soaked in 50 mM Tris pH 7.4, 0.1% polyethylenimine buffer. The filters were then washed three times with 0.5 mL ice-cold Tris pH 7.4 buffer. Washed filters were placed in bags and Starscint™ scintillant added. Bags containing the filters and scintillant were heat sealed and counted by a Betaplate™ 1204 beta counter.
Duplicate samples were run for each experimental compound and the data generated was analysed using IC50 analysis software in Graphpad Prism.
Ki values were calculated using Graphpad Prism according to the following formula:
Ki=IC50/1+[^3H ligand]/KD
where IC50 is the concentration at which 50% of the ^3H ligand is displaced by the test compound and KD is the dissociation constant for the ^3H ligand at the receptor site.

T1 sequence (A0A0F6TMT6 1-401): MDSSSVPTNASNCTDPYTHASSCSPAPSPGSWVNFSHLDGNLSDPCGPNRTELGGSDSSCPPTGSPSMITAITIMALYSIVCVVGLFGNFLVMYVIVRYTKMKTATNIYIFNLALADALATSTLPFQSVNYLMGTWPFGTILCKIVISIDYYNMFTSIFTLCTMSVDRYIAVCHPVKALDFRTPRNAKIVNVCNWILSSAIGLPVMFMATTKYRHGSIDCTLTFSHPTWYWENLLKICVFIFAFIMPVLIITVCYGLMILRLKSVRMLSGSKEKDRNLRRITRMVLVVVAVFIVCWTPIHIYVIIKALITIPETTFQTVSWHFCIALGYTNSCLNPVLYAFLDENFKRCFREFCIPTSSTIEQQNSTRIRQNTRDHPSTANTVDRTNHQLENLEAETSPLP

Compound | Ki [µM]
CCCCCCN1CCC(C)(c2ccc3[nH]c(C)nc3c2)C(C)C1 (racemic) [Example 3, Trans-(±)-2-Methyl-5-(1-hexyl-3,4-dimethyl-4-piperidinyl)-1H-benzimidazole] | ≤ 4
CCCCCCN1CCC(C)(c2ccc3[nH]c(OC)nc3c2)C(C)C1 (racemic) [Example 7, Trans-(±)-2-Methoxy-5-(1-hexyl-3,4-dimethyl-4-piperidinyl)-1H-benzimidazole] | ≤ 4
CCCCCCN1CCC(C)(c2ccc3[nH]c(CC)nc3c2)C(C)C1 (racemic) [Example 12, Trans-(±)-2-ethyl-5-(1-Hexyl-3,4-dimethyl-4-piperidinyl)-1H-benzimidazole] | ≤ 4
Cc1cccc(CCN2CCC(C)(c3ccc4[nH]c(C(F)(F)F)nc4c3)C(C)C2)c1 (racemic) [Example 18, Trans-(±)-2-(Trifluoromethyl)-5-[1-(3-methylphenethyl)-3,4-dimethyl-4-piperidinyl]-1H-benzimidazole] | ≤ 4
CC(C)CCCCN1CCC(C)(c2ccc3[nH]cnc3c2)C(C)C1 (racemic) [Example 21, Trans-(±)-5-[1-(5-Methylhexyl)-3,4-dimethyl-4-piperidinyl]-1H-benzimidazole] | ≤ 4
CCCCCCN1CCC(C)(c2ccc3nc(C)oc3c2)C(C)C1 (racemic) [Example 28, Trans-(±)-2-Methyl-6-(1-hexyl-3,4-dimethyl-4-piperidinyl)-1,3-benzoxazole] | ≤ 4
